Activity calls are given as the source filed them.
Columns and labels:
[1] = HEp-2 cell cytotoxicity, dose response, cytotoxicity control for RSV inhibitor project, HTS (AID 2410); assay type: functional; conditions: human respiratory syncytial virus
[2] = system: Vero; experiment: cells; assay type: functional, cell-based; conditions: Chlorocebus sabaeus
[3] = system: H4; experiment: Luminescence Cell-Based Dose Response HTS to Identify Activators of 5'UTR Stem-Loop Driven Prion Protein mRNA Translation in H4 Neuroglioblastoma Cells. [Related pubchem assays: 1829 (Project Summary), 1814 (Primary HTS)]; assay type: functional; conditions: Homo sapiens
[4] = cells
[5] = Luminescence Cell-Based Dose Response HTS to Identify Activators of Luciferase Translation or Activity in H4 […] Cells. [Related pubchem assays: 1829 (Project Summary), 1814 (Primary HTS)]; assay type: functional
[6] = Luminescence Cell-Based Dose Confirmation HTS to Identify Activators of 5'UTR Stem-Loop Driven Alpha-Synuclein mRNA Translation in H4 Neuroglioblastoma Cells. [Related pubchem assays: 1829 (Project Summary), 1814 (Primary HTS)]; assay type: functional
[7] = system: Vero; experiment: cells; assay type: functional; conditions: Chlorocebus sabaeus
[8] = growth suppression of beta-catenin-knockout colon cells, dose response, cell-based, HCT116, human colon tumor (AID 1045); assay type: functional;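 note: HCT116 colon tumor cells with beta catenin knocked out; cells exposed to compound for 60 hours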
[9] = molecular target: Voltage-dependent T-type calcium channel subunit alpha-1H (Homo sapiens, UniProt O95180); assay type: functional;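 note: channel activity triggered by adding a high calcium stimulation buffer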
[10] = growth suppression of PTEN-null colon cells, dose response, cell-based, HCT116 PTEN knockout (AID 1047); assay type: functional;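 note: HCT116 colon tumor cells with PTEN knocked out; cells exposed to compound for 60 hours before readout; potency for loss of cell viability measured by luminescence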
[11] = system: INS1; experiment: beta cell apoptosis inhibitors, cytokine rescue, dose response, luminescence, retest (AID 449756); assay type: functional, cell-based; conditions: Rattus norvegicus;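 note: cell death triggered by IL-1 beta plus TNF-alpha plus IFN-gamma mixture; protective hits raise ATP signal compared with cytokine alone wells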
[12] = molecular target: G-protein coupled receptor 55 (Homo sapiens, UniProt Q9Y2T6); experiment: GPR55 antagonists blocking LPI-driven arrestin recruitment, primary screen, imaging, U2OS, beta-arrestin-GFP, LPI agonist (AID 2013); assay type: functional;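 note: antagonist potency measured as reduced agonist-driven arrestin aggregation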
[13] = molecular target: Ion channel NompC (Danio rerio, UniProt Q7T1G6); experiment: Fluorescence counterscreen assay for TRPML3 agonists: dose response cell-based high-throughput screening assay to identify agonists of the transient receptor potential channel N1 (TRPN1). [Related pubchem assays: 1526, 1424, 1448 ]; assay type: functional
[14] = molecular target: T1, Mucolipin-3 (Homo sapiens, UniProt Q8TDD5); experiment: Dose response cell-based high-throughput screening assay for agonists of the transient receptor potential channel ML3 (TRPML3). [Related pubchem assays: 1526, 1424, 1448 ]; assay type: functional
T1 sequence (Q8TDD5 whole entry): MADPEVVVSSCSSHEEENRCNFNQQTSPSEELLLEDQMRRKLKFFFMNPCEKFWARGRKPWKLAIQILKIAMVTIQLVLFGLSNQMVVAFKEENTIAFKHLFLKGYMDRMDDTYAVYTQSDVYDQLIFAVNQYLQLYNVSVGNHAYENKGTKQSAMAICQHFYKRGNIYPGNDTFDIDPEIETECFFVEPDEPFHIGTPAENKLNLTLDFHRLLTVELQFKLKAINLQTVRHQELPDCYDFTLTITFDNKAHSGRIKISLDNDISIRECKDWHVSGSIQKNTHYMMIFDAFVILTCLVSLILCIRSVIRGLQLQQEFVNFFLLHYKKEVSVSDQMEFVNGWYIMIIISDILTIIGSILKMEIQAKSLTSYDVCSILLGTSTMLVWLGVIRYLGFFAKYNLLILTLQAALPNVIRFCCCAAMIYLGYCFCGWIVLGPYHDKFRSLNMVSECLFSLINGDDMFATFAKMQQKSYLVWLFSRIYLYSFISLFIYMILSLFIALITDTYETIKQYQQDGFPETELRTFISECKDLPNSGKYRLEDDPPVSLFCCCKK

[15] = molecular target: T2, fMet-Leu-Phe receptor (Homo sapiens, UniProt P21462); experiment: FPR ligands, dose response (AID 519); assay type: functional
T2 sequence (P21462 whole entry): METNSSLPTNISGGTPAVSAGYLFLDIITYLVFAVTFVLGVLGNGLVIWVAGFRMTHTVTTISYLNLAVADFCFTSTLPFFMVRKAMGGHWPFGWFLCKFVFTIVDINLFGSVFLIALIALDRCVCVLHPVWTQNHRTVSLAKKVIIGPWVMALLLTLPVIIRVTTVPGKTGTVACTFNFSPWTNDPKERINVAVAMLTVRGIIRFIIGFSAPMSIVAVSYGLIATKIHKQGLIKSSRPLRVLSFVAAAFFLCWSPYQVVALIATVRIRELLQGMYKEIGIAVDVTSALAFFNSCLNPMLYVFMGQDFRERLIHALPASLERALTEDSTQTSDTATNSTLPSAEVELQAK

[16] = Luminescence Cell-Based Dose Retest to Confirm Inhibitors of Cancer Stem Cells. [Related pubchem assays (depositor defined):AID2717, AID2721]; assay type: functional; conditions: Homo sapiens
[17] = cells; assay type: functional, cell-based
[18] = cells; assay type: functional, cell-based; remark: listed apart in the source
[19] = molecular target: T3, Zinc finger protein mex-5 (Caenorhabditis elegans, UniProt Q9XUB2); experiment: MEX-5/TCR-2 RNA interaction inhibitors, dose response, biochemical, C. elegans, fluorescence polarization (AID 1960)
T3 sequence (Q9XUB2 whole entry): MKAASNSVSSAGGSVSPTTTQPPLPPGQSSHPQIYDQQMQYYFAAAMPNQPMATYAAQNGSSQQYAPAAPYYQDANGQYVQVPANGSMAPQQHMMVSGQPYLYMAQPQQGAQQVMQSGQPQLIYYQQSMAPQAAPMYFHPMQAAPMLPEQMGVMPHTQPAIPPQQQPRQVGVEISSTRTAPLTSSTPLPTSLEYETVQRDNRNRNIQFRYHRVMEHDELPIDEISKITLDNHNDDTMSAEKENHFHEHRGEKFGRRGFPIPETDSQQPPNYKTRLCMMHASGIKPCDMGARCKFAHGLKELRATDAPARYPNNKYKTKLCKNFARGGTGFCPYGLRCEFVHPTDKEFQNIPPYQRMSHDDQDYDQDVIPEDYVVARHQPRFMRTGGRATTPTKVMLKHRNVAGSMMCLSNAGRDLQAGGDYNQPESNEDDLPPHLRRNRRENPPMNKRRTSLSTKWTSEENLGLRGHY

[20] = molecular target: T4, Estrogen receptor (Homo sapiens, UniProt P03372);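 note: potency for inhibiting coactivator peptide recruitment to the receptor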
T4 sequence (P03372 whole entry): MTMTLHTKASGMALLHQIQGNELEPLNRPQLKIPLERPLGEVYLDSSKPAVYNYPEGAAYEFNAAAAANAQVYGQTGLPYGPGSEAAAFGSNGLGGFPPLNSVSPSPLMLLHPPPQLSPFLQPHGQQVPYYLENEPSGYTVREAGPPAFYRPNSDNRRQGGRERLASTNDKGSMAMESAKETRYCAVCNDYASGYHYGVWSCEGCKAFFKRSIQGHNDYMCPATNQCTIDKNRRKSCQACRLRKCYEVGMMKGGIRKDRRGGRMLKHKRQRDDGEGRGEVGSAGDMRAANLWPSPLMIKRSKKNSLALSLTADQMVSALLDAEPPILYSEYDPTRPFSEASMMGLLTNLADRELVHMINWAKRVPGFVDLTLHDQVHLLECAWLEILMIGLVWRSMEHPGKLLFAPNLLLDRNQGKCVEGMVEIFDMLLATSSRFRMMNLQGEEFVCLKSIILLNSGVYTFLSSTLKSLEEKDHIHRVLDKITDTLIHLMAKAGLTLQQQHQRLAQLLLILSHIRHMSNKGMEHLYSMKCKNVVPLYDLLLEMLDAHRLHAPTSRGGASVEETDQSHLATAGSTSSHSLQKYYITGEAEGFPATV

[21] = molecular target: T5, RNA-binding protein pos-1 (Caenorhabditis elegans, UniProt G5EF15); experiment: inhibitors of POS-1/mex-3 RNA binding, dose response, biochemical, fluorescence polarization (AID 1964);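 note: purified POS-1 fused to maltose binding protein made in E. coli; potency of compounds blocking POS-1 binding to fluorescent RNA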
T5 sequence (G5EF15 whole entry): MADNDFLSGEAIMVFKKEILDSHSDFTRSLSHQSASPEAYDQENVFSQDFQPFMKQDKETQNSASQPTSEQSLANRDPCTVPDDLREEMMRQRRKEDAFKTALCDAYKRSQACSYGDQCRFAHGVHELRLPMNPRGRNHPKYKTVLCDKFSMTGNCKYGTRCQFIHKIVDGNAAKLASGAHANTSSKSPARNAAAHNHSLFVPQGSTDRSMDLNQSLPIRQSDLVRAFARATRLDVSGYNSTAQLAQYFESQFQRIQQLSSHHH

[22] = molecular target: T6, Leucine aminopeptidase (Plasmodium falciparum 3D7, UniProt Q8IL11); experiment: P. falciparum M17LAP inhibitors, primary screen, biochemical, fluorogenic H-Leu-NHMec substrate, 1536-well (AID 1619); assay type: functional
T6 sequence (Q8IL11 whole entry): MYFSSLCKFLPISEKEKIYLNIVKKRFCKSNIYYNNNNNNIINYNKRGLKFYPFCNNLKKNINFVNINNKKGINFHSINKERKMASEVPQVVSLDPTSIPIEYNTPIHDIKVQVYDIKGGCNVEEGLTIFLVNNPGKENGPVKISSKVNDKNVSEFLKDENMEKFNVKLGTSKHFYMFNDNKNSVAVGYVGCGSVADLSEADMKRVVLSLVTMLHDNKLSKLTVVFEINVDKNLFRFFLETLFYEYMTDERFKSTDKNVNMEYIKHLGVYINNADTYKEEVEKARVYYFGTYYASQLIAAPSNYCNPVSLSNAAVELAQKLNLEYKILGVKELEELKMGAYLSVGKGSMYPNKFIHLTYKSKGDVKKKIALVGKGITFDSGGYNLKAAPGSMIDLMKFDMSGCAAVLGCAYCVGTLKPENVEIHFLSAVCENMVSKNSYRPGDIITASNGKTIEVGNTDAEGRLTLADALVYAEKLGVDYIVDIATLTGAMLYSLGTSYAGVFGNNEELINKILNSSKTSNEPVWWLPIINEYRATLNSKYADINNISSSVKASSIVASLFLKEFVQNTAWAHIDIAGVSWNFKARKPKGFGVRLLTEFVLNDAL

[23] = cells; assay type: functional
[24] = Vero E6 cell cytotoxicity, dose response, cytotoxicity control for non-replicating M. tuberculosis project, secondary assay (AID 492998); assay type: functional, VeroE6; conditions: Vero C1008
[25] = THP-1 cell cytotoxicity, dose response, cytotoxicity control for non-replicating M. tuberculosis project (AID 489025); assay type: functional
[26] = HepG2 cell cytotoxicity, dose response, cytotoxicity control for non-replicating M. tuberculosis project (AID 489018); assay type: functional; conditions: Mycobacterium tuberculosis
[27] = system: H9c2; experiment: cells; assay type: functional, cell-based; conditions: Rattus norvegicus, H9c2, Myocardium;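 note: confirmatory concentration-response retest of ultra-high-throughput screening hits for modulation of myocardial damage; cell death induced by hydrogen peroxide oxidative stress; compound pretreatment for 60 min then peroxide exposure for 2 h; potency is for protecting the cells against peroxide damage rather than for killing them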
[28] = molecular target: T7, Calpain-2 catalytic subunit (Sus scrofa, UniProt P43367); experiment: pig calpain II inhibitor potency, dose response, biochemical, fluorogenic peptide substrate (AID 1420); assay type: functional
T7 sequence (P43367 whole entry): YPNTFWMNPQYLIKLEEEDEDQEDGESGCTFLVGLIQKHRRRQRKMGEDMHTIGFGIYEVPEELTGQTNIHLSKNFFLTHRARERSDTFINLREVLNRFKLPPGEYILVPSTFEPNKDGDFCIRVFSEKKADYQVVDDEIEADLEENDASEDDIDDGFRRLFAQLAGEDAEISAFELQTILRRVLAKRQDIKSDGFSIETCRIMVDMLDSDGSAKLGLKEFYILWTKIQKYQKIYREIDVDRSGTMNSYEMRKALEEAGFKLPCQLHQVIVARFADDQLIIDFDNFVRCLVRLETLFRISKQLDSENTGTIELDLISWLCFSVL

Ion channel NompC, sequence (Q7T1G6 whole entry): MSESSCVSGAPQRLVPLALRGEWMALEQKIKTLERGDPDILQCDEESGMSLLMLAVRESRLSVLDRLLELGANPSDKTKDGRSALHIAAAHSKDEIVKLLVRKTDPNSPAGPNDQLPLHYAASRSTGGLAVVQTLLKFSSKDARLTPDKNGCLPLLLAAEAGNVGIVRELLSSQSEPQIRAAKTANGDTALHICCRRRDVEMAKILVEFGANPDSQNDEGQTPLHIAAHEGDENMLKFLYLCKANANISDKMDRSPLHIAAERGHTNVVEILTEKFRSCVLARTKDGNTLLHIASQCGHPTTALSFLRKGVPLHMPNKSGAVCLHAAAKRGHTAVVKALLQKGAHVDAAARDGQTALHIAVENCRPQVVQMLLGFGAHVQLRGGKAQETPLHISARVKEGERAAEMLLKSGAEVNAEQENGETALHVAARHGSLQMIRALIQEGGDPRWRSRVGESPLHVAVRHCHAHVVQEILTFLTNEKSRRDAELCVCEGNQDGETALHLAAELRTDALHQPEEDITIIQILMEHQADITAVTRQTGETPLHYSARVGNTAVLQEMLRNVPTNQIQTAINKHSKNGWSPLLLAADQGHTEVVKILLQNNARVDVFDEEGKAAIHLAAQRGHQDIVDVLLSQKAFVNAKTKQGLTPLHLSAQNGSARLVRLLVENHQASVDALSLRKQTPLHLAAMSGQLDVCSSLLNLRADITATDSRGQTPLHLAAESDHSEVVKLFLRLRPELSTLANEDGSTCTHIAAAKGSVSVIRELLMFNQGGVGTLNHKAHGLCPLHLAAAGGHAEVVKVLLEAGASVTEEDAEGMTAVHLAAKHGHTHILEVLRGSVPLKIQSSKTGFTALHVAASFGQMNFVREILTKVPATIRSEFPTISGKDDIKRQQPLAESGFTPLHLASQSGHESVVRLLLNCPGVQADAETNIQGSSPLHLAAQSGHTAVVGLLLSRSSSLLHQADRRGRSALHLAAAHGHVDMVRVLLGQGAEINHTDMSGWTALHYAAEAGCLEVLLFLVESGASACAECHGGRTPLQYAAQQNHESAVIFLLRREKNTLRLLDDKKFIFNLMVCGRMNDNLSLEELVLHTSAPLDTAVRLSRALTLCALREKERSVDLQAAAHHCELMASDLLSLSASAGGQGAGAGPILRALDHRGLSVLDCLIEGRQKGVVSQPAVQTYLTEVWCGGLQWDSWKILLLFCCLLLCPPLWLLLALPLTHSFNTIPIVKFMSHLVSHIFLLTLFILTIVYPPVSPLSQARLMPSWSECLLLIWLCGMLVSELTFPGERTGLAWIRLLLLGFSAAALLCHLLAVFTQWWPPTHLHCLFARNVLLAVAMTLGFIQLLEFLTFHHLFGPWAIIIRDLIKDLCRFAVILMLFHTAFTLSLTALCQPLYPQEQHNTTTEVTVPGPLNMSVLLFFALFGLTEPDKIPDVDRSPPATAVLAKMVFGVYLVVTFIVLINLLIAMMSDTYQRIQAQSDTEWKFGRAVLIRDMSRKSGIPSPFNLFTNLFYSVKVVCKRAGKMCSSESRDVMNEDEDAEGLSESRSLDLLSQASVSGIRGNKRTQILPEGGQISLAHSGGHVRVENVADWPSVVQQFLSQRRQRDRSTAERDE
Voltage-dependent T-type calcium channel subunit alpha-1H, sequence (O95180 whole entry): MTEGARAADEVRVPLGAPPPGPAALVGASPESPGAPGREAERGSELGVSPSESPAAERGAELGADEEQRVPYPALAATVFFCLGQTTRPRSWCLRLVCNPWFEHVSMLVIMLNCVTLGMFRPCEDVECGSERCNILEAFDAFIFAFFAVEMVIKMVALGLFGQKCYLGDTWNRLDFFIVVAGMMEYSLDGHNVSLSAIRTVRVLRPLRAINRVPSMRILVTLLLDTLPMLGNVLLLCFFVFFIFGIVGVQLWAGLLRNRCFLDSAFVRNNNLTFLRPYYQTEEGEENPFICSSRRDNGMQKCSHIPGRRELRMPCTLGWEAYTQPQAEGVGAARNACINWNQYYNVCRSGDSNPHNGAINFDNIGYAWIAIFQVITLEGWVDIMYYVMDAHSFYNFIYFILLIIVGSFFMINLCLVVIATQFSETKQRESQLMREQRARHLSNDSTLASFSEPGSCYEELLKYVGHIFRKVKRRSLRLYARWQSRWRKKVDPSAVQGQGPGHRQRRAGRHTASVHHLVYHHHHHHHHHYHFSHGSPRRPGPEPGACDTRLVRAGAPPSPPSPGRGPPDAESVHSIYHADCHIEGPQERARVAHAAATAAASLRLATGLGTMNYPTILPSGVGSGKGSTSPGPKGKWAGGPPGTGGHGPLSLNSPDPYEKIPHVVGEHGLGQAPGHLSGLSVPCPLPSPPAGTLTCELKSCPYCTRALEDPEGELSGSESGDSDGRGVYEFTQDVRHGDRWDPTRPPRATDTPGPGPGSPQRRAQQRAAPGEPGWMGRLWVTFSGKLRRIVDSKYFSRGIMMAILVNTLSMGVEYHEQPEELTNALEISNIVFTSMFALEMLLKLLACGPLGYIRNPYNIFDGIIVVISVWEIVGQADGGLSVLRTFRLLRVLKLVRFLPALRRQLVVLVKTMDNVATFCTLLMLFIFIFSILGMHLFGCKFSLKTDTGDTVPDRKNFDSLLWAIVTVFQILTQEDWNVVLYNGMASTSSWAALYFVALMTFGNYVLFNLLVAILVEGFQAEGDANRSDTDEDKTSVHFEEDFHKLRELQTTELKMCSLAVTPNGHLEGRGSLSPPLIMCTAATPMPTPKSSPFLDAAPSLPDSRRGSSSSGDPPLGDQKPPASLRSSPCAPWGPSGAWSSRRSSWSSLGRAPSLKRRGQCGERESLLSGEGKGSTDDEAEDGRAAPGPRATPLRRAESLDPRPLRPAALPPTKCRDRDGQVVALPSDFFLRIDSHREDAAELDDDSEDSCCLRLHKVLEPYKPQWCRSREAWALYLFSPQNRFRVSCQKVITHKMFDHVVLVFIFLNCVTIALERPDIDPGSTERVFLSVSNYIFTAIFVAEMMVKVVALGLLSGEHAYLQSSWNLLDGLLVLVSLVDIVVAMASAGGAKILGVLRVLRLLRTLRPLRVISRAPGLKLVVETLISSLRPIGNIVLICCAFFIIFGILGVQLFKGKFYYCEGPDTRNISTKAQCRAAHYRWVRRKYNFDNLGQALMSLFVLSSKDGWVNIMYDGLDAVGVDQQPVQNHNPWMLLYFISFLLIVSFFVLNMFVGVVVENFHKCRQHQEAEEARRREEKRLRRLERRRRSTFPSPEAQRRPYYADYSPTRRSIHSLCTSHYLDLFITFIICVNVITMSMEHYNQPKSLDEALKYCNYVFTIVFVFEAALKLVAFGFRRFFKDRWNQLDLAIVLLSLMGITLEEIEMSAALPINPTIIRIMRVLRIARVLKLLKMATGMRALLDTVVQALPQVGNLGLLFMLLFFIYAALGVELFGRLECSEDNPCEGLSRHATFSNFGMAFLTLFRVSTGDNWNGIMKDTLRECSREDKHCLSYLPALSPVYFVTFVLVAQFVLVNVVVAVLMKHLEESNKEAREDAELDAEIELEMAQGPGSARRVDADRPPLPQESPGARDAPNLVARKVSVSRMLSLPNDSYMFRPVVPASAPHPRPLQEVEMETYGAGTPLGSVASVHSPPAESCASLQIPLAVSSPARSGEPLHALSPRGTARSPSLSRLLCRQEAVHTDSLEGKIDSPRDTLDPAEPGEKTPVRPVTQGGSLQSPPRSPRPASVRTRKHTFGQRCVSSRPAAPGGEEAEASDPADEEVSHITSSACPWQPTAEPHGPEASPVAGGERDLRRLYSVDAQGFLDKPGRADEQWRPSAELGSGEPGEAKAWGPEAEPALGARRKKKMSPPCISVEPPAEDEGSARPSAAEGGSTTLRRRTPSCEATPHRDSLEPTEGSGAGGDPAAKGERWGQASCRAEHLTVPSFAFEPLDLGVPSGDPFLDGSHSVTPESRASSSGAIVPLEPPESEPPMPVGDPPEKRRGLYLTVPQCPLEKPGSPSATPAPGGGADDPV
G-protein coupled receptor 55, sequence (Q9Y2T6 whole entry): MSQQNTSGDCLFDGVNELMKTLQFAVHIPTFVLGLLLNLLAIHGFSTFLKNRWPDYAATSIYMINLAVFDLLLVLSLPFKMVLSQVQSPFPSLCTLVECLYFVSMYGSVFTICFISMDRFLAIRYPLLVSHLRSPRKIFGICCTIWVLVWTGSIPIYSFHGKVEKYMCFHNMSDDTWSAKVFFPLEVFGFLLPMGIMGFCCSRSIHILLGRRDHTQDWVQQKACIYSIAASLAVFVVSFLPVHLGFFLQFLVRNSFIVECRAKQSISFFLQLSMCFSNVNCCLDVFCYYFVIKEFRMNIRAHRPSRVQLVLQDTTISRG

Cn1c(C(=O)NCc2cccs2)cc2oc3ccccc3c21
CC50 [1]: 3.9 µM (active)
IC50 [2]: 1.32 µM (active)
EC50 [3]: > 120 µM (not active)
IC50 [4]: 18.4 µM (active)
EC50 [5]: 2.92 µM (active)
EC50 [6]: > 120 µM (not active)
CC50 [7]: > 25 µM (active)

CC[n+]1c(/C=C/C=C/N(C(C)=O)c2ccccc2)sc2ccccc21
EC50 [8]: 19.7 µM (active)
EC50 [9]: 2.21 µM (active)
EC50 [10]: 20.8 µM (active)

Cc1ccccc1-c1cc(C(=O)Nc2sc(C)c(C)c2C(N)=O)c2ccccc2n1
AC50 [11]: 5.87 µM (active)
IC50 [12]: 2.76 µM (active)

O=C(c1ccccc1F)N(NC(=O)C(O)(c1ccccc1)c1ccccc1)c1ccccc1
EC50 [13]: > 29.9 µM (not active)
EC50 [14]: 10.4 µM (not active)

O=C(N=Nc1c(O)[nH]c2ccc([N+](=O)[O-])cc12)c1ccccc1[N+](=O)[O-]
IC50 [4]: 26.2 µM (active)

Cc1nn(-c2nc3ccccc3s2)c(C)c1Oc1ccccc1O
CC50 [1]: 20.6 µM (active)
Ki [15]: > 66.7 µM (inactive)
IC50 [2]: 11.7 µM (active)
AC50 [16]: 5.5 µM (active)
IC50 [4]: 15.6 µM (active)
CC50 [7]: > 25 µM (active)

CCN(CCCNC(=O)CCc1nc(-c2ccc(OC)cc2)no1)c1cccc(C)c1
EC50 [17]: > 350 µM (not active)
EC50 [9]: 4.41 µM (active)
EC50 [18]: > 350 µM (not active)

CCN(c1ccccc1)S(=O)(=O)c1ccc(Cl)c(NC(=O)CSc2n[nH]c(N)n2)c1
CC50 [1]: 44.2 µM (active)
IC50 [4]: 7.78 µM (active)

O=C1C2CC=C(Cl)CC2C(=O)N1CCCCCCN1C(=O)C2CC=C(Cl)CC2C1=O (configuration not stated)
EC50 [19]: 12.2 µM (active)
IC50 [20]: 24.7 µM (active)
EC50 [21]: 14.4 µM (active)
IC50 [22]: 37.2 µM (active)

CC(=O)c1ccc(C(=O)Nc2nnc(-c3ccc(Cl)cc3)o2)cc1
IC50 [23]: 0.47 µM (active)
CC50 [24]: 8.62 µM (active)
CC50 [25]: 7.9 µM (active)
CC50 [26]: 13.1 µM (active)
IC50 [27]: > 79 µM (inactive)

Cc1csc(NC(=O)CSc2nc3ccccc3s2)n1
EC50 [9]: 7.68 µM (active)

Cc1cc(C(C)(C)C)oc1C(=O)N(CC(=O)NC1CCCC1)Cc1ccccc1Cl
EC50 [13]: > 29.9 µM (not active)
EC50 [14]: > 29.9 µM (not active)
IC50 [28]: 2.28 µM (not active)

CC(C)Oc1ccc(/C=N/NC(=O)C(CSCc2ccccc2)NC(=O)c2ccc([N+](=O)[O-])cc2)cc1 (configuration not stated)
EC50 [13]: > 29.9 µM (not active)
EC50 [14]: 0.342 µM (active)

CCc1ccccc1/N=C1/S/C(=C/c2ccccc2OCC(=O)N2CCOCC2)C(=O)N1C
IC50 [12]: 2.71 µM (active)

From ChEMBL document CHEMBL1201862, “PubChem BioAssay data set” (2004)
